Legend:
Test in all cases: relative viability (nuclei count vs DMSO), 5 days (fraction); higher = more cells survive
[1] = tested on: H3255
In short: (§1)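 The day after seeding in 1536-well plates, lung cancer cell lines were treated by pin tool with a single drug, or with a fixed anchor-drug dose together with five library-drug doses (not always all listed) in √10 steps. After 5 days, a combined fix-and-stain solution (final 0.05% Triton X-100, 1% formaldehyde, 1 ug/ml Hoechst) was added. Nuclei counted on 4× images gave relative viability as treated counts over vehicle counts, reported as the median of duplicate plates.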

[2] = tested on: CAL-12T
In short: as §1

[3] = tested on: HOP-62
In short: as §1

[4] = tested on: NCI-H647
In short: as §1

[5] = tested on: LXF-289
In short: as §1

[6] = tested on: NCI-H522
In short: as §1

[7] = tested on: NCI-H2170
In short: as §1

[8] = tested on: NCI-H2087
In short: as §1

[9] = tested on: SW 900
In short: as §1

[10] = tested on: NCI-H1755
In short: as §1

[11] = tested on: ABC-1
In short: as §1

[12] = tested on: NCI-H596
In short: as §1

[13] = tested on: NCI-H322M
In short: as §1

[14] = tested on: NCI-H1734
In short: as §1

[15] = tested on: EMC-BAC-2
In short: as §1

[16] = tested on: NCI-H441
In short: as §1

[17] = tested on: 201T
In short: as §1

[18] = tested on: NCI-H2126
In short: as §1

[19] = tested on: NCI-H1651
In short: as §1

[20] = tested on: LK-2
In short: as §1

SMILES: COCC1(CO)C(=O)C2CCN1CC2 (stereo unspecified) [PRIMA-1MET] + NC(=O)Nc1cc(-c2cccc(F)c2)sc1C(=O)N[C@H]1CCCNC1 [AZD7762] (partner 0.2 µM)
- relative viability ([1]; first compound 0.2 µM): 0.945
- relative viability ([1]; first compound 0.6325 µM): 0.873
- relative viability ([1]; first compound 2 µM): 0.955
- relative viability ([1]; first compound 6.325 µM): 1.06
- relative viability ([1]; first compound 20 µM): 0.775
- relative viability ([2]; first compound 0.2 µM): 0.603
- relative viability ([2]; first compound 2 µM): 0.6
- relative viability ([2]; first compound 6.325 µM): 0.777
- relative viability ([2]; first compound 20 µM): 0.601
- relative viability ([3]; first compound 0.2 µM): 0.653
- relative viability ([3]; first compound 0.6325 µM): 0.387
- relative viability ([3]; first compound 2 µM): 0.482
- relative viability ([3]; first compound 6.325 µM): 0.655
- relative viability ([3]; first compound 20 µM): 0.273
- relative viability ([4]; first compound 0.2 µM): 0.578
- relative viability ([4]; first compound 0.6325 µM): 0.434
- relative viability ([4]; first compound 2 µM): 0.38
- relative viability ([4]; first compound 6.325 µM): 0.383
- relative viability ([4]; first compound 20 µM): 0.137
- relative viability ([5]; first compound 0.2 µM): 1.15
- relative viability ([5]; first compound 0.6325 µM): 1.07
- relative viability ([5]; first compound 2 µM): 1.13
- relative viability ([5]; first compound 6.325 µM): 1.12
- relative viability ([5]; first compound 20 µM): 1.01
- relative viability ([6]; first compound 0.2 µM): 0.788
- relative viability ([6]; first compound 0.6325 µM): 0.823
- relative viability ([6]; first compound 2 µM): 0.838
- relative viability ([6]; first compound 6.325 µM): 0.598
- relative viability ([6]; first compound 20 µM): 0.283
- relative viability ([7]; first compound 0.2 µM): 1.06
- relative viability ([7]; first compound 0.6325 µM): 0.604
- relative viability ([7]; first compound 2 µM): 0.644
- relative viability ([7]; first compound 6.325 µM): 1
- relative viability ([7]; first compound 20 µM): 0.836
- relative viability ([8]; first compound 0.6325 µM): 1.35
- relative viability ([8]; first compound 2 µM): 1.29
- relative viability ([8]; first compound 6.325 µM): 1.25
- relative viability ([8]; first compound 20 µM): 0.938
- relative viability ([9]; first compound 0.2 µM): 0.553
- relative viability ([9]; first compound 0.6325 µM): 0.632
- relative viability ([9]; first compound 6.325 µM): 0.573
- relative viability ([9]; first compound 20 µM): 0.101
- relative viability ([10]; first compound 0.2 µM): 0.414
- relative viability ([10]; first compound 0.6325 µM): 0.4
- relative viability ([10]; first compound 2 µM): 0.392
- relative viability ([10]; first compound 6.325 µM): 0.557
- relative viability ([10]; first compound 20 µM): 0.446
- relative viability ([11]; first compound 0.2 µM): 0.97
- relative viability ([11]; first compound 0.6325 µM): 0.624
- relative viability ([11]; first compound 2 µM): 0.952
- relative viability ([11]; first compound 6.325 µM): 0.775
- relative viability ([11]; first compound 20 µM): 0.376
- relative viability ([12]; first compound 0.2 µM): 1.24
- relative viability ([12]; first compound 0.6325 µM): 1
- relative viability ([12]; first compound 2 µM): 0.884
- relative viability ([12]; first compound 6.325 µM): 1.22
- relative viability ([12]; first compound 20 µM): 0.232
- relative viability ([13]; first compound 0.2 µM): 0.657
- relative viability ([13]; first compound 0.6325 µM): 0.558
- relative viability ([13]; first compound 6.325 µM): 0.59
- relative viability ([13]; first compound 20 µM): 0.406
- relative viability ([14]; first compound 0.2 µM): 0.52
- relative viability ([14]; first compound 0.6325 µM): 0.538
- relative viability ([14]; first compound 2 µM): 0.685
- relative viability ([14]; first compound 6.325 µM): 0.452
- relative viability ([14]; first compound 20 µM): 0.0452
- relative viability ([15]; first compound 0.2 µM): 1.34
- relative viability ([15]; first compound 0.6325 µM): 1.07
- relative viability ([15]; first compound 2 µM): 0.989
- relative viability ([15]; first compound 6.325 µM): 1.12
- relative viability ([15]; first compound 20 µM): 1.01
- relative viability ([16]; first compound 0.2 µM): 1.09
- relative viability ([16]; first compound 0.6325 µM): 1.06
- relative viability ([16]; first compound 2 µM): 0.833
- relative viability ([16]; first compound 6.325 µM): 1.1
- relative viability ([16]; first compound 20 µM): 0.731
- relative viability ([17]; first compound 0.2 µM): 0.484
- relative viability ([17]; first compound 0.6325 µM): 0.578
- relative viability ([17]; first compound 2 µM): 0.626
- relative viability ([17]; first compound 6.325 µM): 0.577
- relative viability ([17]; first compound 20 µM): 0.563
- relative viability ([18]; first compound 0.2 µM): 1.05
- relative viability ([18]; first compound 0.6325 µM): 1.02
- relative viability ([18]; first compound 2 µM): 0.975
- relative viability ([18]; first compound 6.325 µM): 1.02
- relative viability ([18]; first compound 20 µM): 0.978
- relative viability ([19]; first compound 0.2 µM): 0.442
- relative viability ([19]; first compound 0.6325 µM): 0.443
- relative viability ([19]; first compound 2 µM): 0.478
- relative viability ([19]; first compound 6.325 µM): 0.513
- relative viability ([19]; first compound 20 µM): 0.592
- relative viability ([20]; first compound 0.2 µM): 0.469
- relative viability ([20]; first compound 0.6325 µM): 0.405
- relative viability ([20]; first compound 2 µM): 0.182
- relative viability ([20]; first compound 6.325 µM): 0.124
- relative viability ([20]; first compound 20 µM): 0.0604

Reference: the supplement of paper PMC10307832
